Like-named read-outs stand apart in the source and are kept apart here. One block for each compound: values may come before it.
Assays:
cyclooxygenase-2 = molecular target: T1, cyclooxygenase-2 (Homo sapiens, UniProt P35354); assay: Inhibition of cyclooxygenase-2 activity (PGE2 synthesis in response to arachidonic acid, radioimmunoassay; whole cell and microsomal assays); assay type: cell-based; conditions: for IC50: read-out: COX-2 IC50
T1 construct: Cells used for whole cell assays, and from which microsomes were prepared for microsomal assays, were human osteosarcoma 143 cells; endogenous in cells; host or cells: human osteosarcoma 143 cells (whole cells or microsomes)
T1 sequence (P35354 18-604): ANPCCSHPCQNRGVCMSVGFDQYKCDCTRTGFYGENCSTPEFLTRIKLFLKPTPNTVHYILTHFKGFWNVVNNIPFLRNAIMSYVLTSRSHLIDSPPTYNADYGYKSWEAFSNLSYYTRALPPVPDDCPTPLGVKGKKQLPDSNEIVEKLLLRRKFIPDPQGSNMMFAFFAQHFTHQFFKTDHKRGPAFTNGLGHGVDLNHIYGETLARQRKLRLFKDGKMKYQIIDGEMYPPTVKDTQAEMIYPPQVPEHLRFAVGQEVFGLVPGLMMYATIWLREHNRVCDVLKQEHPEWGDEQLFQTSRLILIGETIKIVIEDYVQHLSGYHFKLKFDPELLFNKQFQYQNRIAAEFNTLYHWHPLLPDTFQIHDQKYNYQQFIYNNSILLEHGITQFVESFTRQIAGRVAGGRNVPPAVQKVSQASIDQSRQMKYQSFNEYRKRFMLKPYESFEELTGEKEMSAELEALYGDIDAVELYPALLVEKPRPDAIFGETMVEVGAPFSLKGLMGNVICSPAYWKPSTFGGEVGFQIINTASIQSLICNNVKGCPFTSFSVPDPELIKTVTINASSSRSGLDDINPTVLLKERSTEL
Description: (§1) Compounds were tested as inhibitors of cyclooxygenase activity in whole cell and microsomal cyclooxygenase assays. Both of these assays measured prostaglandin E2 synthesis in response to arachidonic acid, using a radioimmunoassay. Cells used for whole cell assays, and from which microsomes were prepared for microsomal assays, were human osteosarcoma 143 cells (which specifically express cyclooxygenase-2) and human U-937 cells (which specifically express cyclooxygenase-1). In these assays, 100% activity is defined as the difference between prostaglandin E2 synthesis in the absence and presence of arachidonate addition.
(§2) In the assay, inhibition is determined by measuring the amount of prostaglandin E2 (PGE2) synthesized in the presence of arachidonic acid, cyclooxygenase-1 or cyclooxygenase-2 and a putative inhibitor.

Rat plasma levels = assay type: in vivo
cyclooxygenase-1 = molecular target: T2, cyclooxygenase-1 (Homo sapiens, UniProt P23219); assay: Inhibition of cyclooxygenase-1 activity (PGE2 synthesis in response to arachidonic acid, radioimmunoassay; whole cell and microsomal assays); assay type: cell-based; conditions: for IC50: table of prepared examples, read-out: COX-1 IC50; for COX-1 inhibition (result in words, with concentration): human U-937 cells, concentration stated in the cell
T2 construct: human U-937 cells (which specifically express cyclooxygenase-1); endogenous in cells; host or cells: human U-937 cells (whole cells or microsomes)
Description: as §1, §2

paw edema = assay: Rat paw edema assay (carrageenan); assay type: in vivo; conditions: po; for Rat Paw EDEMA ED30: 1 hr before carrageenan, paw volume 3 hr later; for Rat Paw Edema ED50: table of prepared examples
Description: One hr later, a line was drawn using a permanent marker at the level above the ankle in one hind paw to define the area of the paw to be monitored. The paw volume (VO) was measured using a plethysmometer (Ugo-Basile, Italy) based on the principle of water displacement. […] The animals were sacrificed by CO2 aphyxiation and the absence or presence of stomach lesions scored. Data were compared with the vehicle-control values and percent inhibition calculated. […] At least 6 animals were used at each concentration All treatment groups were coded to eliminate observer bias.

[1] = Monkey pharmacokinetics (Cmax, t1/2); assay type: in vivo

T2 sequence (P23219 24-599): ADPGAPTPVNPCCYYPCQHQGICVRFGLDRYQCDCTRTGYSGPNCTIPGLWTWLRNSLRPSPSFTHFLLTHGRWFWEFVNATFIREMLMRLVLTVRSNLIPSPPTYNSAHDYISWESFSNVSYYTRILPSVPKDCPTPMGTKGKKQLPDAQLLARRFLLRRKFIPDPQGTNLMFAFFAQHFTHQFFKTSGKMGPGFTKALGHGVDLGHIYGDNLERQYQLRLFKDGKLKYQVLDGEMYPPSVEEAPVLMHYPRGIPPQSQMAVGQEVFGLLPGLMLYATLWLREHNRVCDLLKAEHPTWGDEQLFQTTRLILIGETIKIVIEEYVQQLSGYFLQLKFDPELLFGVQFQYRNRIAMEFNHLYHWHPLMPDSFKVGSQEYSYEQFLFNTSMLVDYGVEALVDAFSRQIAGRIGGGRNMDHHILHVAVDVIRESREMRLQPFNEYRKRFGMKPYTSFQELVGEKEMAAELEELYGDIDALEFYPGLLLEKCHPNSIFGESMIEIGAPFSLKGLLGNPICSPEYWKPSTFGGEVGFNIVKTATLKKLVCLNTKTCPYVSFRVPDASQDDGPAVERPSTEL

IC50 (cyclooxygenase-2; table of prepared examples): 100 nM
Compound: C=Cc1ccc(Sc2cc3c(cc2NS(C)(=O)=O)CCC3=O)cc1 [Compound 24]

COX-2 % INHB (cyclooxygenase-2; CONC 10 nM): 43% | COX-2 % INHB (cyclooxygenase-2; CONC 100 nM): 87% | COX-2 % INHB (cyclooxygenase-2; CONC 1000 nM): 91% | Rat Plasma Levels @ 1 hr (Rat plasma levels; 10 mpk): 70 @ 10 mpk μg/ml | IC50 (cyclooxygenase-1): > 10000 nM | Cmax ([1]; in vivo, 5 mg/kg, 5 mpk): 35000 ng/mL | half-life ([1]; in vivo, n = 2, estimated, read-out: t½ Monkey (n = 2) (Estimated)): > 9 h
Compound: CS(=O)(=O)Nc1cc2c(cc1Sc1ccc(F)cc1F)C(=O)CC2 [Compound 12, 5-Methanesulfonamido-6-(2,4-difluorophenylthio)-1-indanone]
Rat Paw EDEMA ED30 (paw edema): 0.3 ± .1 mpk | Rat Paw Edema ED50 (paw edema): 0.3 mpk

IC50 (cyclooxygenase-2; table of prepared examples): 30 nM
Compound: CS(=O)(=O)Nc1cc2c(cc1Oc1ccccc1)C(=O)CC2 [Compound 1, reference compound]

IC50 (cyclooxygenase-2; table of prepared examples): 9 nM
Compound: CS(=O)(=O)Nc1cc2c(cc1Oc1ccc(Br)cc1)C(=O)CC2 [Compound 2]

IC50 (cyclooxygenase-2; table of prepared examples): 13 nM
Compound: CS(=O)(=O)Nc1cc2c(cc1Sc1ccc(Cl)cc1F)C(=O)CC2 [Compound 14]

Compound: CS(=O)(=O)Nc1cc2c(cc1Oc1ccc(F)cc1F)C(=O)CC2 [Compound 3, Flosulide, reference compound]
Rat Plasma Levels @ 1 hr (Rat plasma levels; 20 mpk): 48 @ 20 mpk μg/ml | COX-1 inhibition (result in words, with concentration) (cyclooxygenase-1): Inactive at 50 μM | IC50 (cyclooxygenase-1): > 50000 nM | Rat Paw EDEMA ED30 (paw edema): 1.1 ± .4 mpk | Rat Paw Edema ED50 (paw edema): 0.62 mpk | Monkey Cmax ([1]; 10 mpk): 17 @ 10 mpk μg/ml | t½ Monkey (n = 2) (Estimated) ([1]; n = 2, estimated): <4 h

Compound: COc1ccc2c(c1)c(CC(=O)O)c(C)n2C(=O)c1ccc(Cl)cc1 [INDOMETHACIN, Indomethacin, reference compound]
Rat Paw EDEMA ED30 (paw edema): 1.1 ± .3 mpk

IC50 (cyclooxygenase-2; table of prepared examples): 50 nM | IC50 (cyclooxygenase-1): > 100000 nM
Compound: CS(=O)(=O)Nc1cc2c(cc1Sc1ccccc1)C(=O)CC2 [Compound 6]
Rat Paw Edema ED50 (paw edema): 0.16 mpk

IC50 (cyclooxygenase-2; table of prepared examples): 10 nM
Compound: CS(=O)(=O)Nc1cc2c(cc1Sc1ccc(I)cc1)C(=O)CC2 [Compound 11]

IC50 (cyclooxygenase-2; table of prepared examples): 100 nM
Compound: CS(=O)(=O)Nc1cc2c(cc1Sc1ccc(F)cc1)C(=O)CC2 [Compound 8]

IC50 (cyclooxygenase-2; table of prepared examples): 50 nM
Compound: CS(=O)(=O)Nc1cc2c(cc1Sc1ccc(C(F)(F)F)cc1)C(=O)CC2 [Compound 22]

IC50 (cyclooxygenase-2; human osteosarcoma 143 cells, PGE2 synthesis): 8 nM | COX-1 inhibition (result in words, with concentration) (cyclooxygenase-1): Inactive at 100 μM | IC50 (cyclooxygenase-1): > 100000 nM
Compound: CS(=O)(=O)Nc1cc2c(cc1Oc1ccc(Cl)cc1Cl)C(=O)CC2 [Compound 4, 5-Methanesulfonamido-6-(2,4-dichlorophenoxy)-1-indanone]
Rat Paw EDEMA ED30 (paw edema): 0.22 mpk | Rat Paw Edema ED50 (paw edema): 0.22 mpk

IC50 (cyclooxygenase-2; table of prepared examples): 100 nM
Compound: Cc1ccccc1Sc1cc2c(cc1NS(C)(=O)=O)CCC2=O [Compound 19]

IC50 (cyclooxygenase-2; table of prepared examples): 11 nM
Compound: CS(=O)(=O)Nc1cc2c(cc1Sc1ccc(F)cc1Cl)C(=O)CC2 [Compound 16]

IC50 (cyclooxygenase-2; table of prepared examples): 50 nM
Compound: Cc1ccc(Sc2cc3c(cc2NS(C)(=O)=O)CCC3=O)cc1 [Compound 20]

IC50 (cyclooxygenase-2; table of prepared examples): 100 nM
Compound: CS(=O)(=O)Nc1cc2c(cc1Sc1ccc(Cl)cc1)C(=O)CC2 [Compound 9]
